{"source": "paper PMC3278406", "about": "(PLoS ONE, 2012)", "key": {"Stx1B (Stx1 B-subunits)": {"target": "Stx1B (Stx1 B-subunits) (Bacteriophage H30, UniProt P69178)", "sequence (P69178 21-89 limits assumed)": "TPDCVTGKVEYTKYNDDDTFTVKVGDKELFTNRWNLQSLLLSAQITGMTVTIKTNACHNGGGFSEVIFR", "type": "binding, Escherichia coli O157:H7", "conditions": "read-out: Kd of Stx1B for glycan"}, "Stx2B (Stx2 B-subunits)": {"target": "Stx2B (Stx2 B-subunits) (Escherichia phage 933W, UniProt P09386)", "sequence (P09386 20-89 limits assumed)": "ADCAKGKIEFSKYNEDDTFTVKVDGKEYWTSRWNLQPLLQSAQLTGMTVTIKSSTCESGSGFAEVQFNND", "type": "binding, Escherichia coli O157:H7"}}}
{"substance": "Galα1-4Galβ1-4Glc [Pk]", "values": [{"measurement": "Kd", "setting": "Stx1B (Stx1 B-subunits)", "value": "4 ± 0.3", "unit": "mM"}, {"measurement": "binding of Stx2B to glycan", "setting": "Stx2B (Stx2 B-subunits)", "value": "no binding"}, {"measurement": "Kd", "setting": "Stx2B (Stx2 B-subunits); read-out: Kd of Stx2B for glycan", "value": "> 12", "unit": "mM"}]}
